Measurements taken from paper PMC8402619 (Viruses, 2021).

How the values were obtained:
Assay type in all cases: in vitro ADME
CYP2C19 [1] = biological target: T1, CYP2C19 (Homo sapiens, UniProt P33261); test: Time-dependent CYP inhibition in pooled human liver microsomes
CYP3A4 = test: CYP induction in cryopreserved human hepatocytes; details: for mRNA Mean Fold Change ± SD CYP3A4: 48 h, n = 3 donors, vs DMSO vehicle
CYP1A2 = biological target: T2, CYP1A2 (Homo sapiens, UniProt P05177); test: Time-dependent CYP inhibition in pooled human liver microsomes
T2 sequence (P05177 1-516): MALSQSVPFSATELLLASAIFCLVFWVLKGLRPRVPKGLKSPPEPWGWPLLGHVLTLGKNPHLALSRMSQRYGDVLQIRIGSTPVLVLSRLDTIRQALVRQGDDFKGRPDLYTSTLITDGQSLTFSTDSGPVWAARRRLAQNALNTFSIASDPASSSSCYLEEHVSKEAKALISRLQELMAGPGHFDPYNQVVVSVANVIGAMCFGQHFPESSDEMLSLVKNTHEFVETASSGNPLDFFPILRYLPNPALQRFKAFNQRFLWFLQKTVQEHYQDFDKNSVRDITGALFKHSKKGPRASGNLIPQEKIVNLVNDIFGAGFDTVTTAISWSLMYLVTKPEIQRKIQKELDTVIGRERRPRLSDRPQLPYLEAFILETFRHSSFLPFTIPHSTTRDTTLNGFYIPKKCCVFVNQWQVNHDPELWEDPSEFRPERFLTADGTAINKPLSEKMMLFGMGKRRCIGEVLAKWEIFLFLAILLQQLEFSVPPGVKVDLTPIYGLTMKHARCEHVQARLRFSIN

CYP2C19 [2] = biological target: T1, CYP2C19; test: Reversible CYP inhibition in pooled human liver microsomes
MRP4 = biological target: T3, MRP4 (Homo sapiens, UniProt O15439); test: Inhibition of ATP-dependent probe uptake in Sf9 membrane vesicles; details: MRP4-mediated ATP-dependent uptake of folic acid
T3 construct: purchased Thermo Fisher Scientific; host or cells: Sf9
T3 sequence (O15439 whole entry): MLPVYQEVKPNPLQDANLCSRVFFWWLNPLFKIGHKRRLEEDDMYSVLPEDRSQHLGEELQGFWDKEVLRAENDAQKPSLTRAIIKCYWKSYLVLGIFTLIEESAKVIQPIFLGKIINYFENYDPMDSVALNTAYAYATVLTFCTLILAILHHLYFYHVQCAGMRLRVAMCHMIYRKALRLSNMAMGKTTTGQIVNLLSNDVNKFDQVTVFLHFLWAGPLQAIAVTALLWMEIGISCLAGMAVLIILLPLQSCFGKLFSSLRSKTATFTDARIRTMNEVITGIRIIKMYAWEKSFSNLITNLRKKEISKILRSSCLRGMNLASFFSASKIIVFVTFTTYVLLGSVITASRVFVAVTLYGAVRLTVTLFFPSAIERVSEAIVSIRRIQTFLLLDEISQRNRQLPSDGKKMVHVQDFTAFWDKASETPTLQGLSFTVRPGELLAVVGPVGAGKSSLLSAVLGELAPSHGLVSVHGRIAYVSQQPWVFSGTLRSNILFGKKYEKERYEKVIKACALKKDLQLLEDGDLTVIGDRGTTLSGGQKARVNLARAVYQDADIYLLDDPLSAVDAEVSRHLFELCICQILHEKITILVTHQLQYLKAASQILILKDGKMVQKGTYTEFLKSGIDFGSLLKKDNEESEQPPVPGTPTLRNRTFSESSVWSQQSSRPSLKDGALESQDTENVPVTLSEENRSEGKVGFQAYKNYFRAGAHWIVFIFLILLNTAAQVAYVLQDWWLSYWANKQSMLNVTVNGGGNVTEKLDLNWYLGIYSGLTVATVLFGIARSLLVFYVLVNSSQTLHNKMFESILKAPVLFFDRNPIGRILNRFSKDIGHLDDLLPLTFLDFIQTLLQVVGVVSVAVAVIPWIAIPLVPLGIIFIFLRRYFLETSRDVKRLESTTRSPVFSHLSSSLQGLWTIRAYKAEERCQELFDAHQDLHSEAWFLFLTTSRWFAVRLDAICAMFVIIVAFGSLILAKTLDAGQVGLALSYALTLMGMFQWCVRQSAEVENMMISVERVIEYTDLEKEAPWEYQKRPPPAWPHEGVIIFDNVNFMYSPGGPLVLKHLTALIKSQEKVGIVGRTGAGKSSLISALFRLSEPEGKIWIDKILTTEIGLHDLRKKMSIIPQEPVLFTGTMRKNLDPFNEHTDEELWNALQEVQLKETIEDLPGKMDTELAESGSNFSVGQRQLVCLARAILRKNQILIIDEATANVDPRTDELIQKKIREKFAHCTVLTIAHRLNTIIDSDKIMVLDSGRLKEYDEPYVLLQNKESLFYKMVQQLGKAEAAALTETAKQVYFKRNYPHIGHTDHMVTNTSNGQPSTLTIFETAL

CYP2D6 = CYP2D6 (Homo sapiens, UniProt P10635); test: Reversible CYP inhibition in pooled human liver microsomes
Chain of CYP2D6 (P10635 whole entry): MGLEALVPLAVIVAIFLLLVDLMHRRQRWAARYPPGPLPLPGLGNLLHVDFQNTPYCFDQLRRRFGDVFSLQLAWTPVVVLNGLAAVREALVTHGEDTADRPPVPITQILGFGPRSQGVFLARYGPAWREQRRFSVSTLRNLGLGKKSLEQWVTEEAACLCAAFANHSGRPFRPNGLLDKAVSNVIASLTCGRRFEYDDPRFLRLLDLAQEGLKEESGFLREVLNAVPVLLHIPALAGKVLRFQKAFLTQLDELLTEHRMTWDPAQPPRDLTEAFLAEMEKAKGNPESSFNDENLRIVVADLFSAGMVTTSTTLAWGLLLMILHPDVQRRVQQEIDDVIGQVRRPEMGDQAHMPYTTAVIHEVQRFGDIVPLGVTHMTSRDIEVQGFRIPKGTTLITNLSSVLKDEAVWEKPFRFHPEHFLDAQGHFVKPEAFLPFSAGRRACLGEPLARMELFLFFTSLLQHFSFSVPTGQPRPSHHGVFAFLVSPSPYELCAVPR

[3] = Plasma protein binding by equilibrium dialysis, human plasma
MRP3 = biological target: T4, MRP3 (Homo sapiens, UniProt O15438); test: Inhibition of ATP-dependent probe uptake in Sf9 membrane vesicles; details: MRP3-mediated ATP-dependent uptake of E217βG
T4 construct: purchased Thermo Fisher Scientific; host or cells: Sf9
T4 sequence (O15438 whole entry): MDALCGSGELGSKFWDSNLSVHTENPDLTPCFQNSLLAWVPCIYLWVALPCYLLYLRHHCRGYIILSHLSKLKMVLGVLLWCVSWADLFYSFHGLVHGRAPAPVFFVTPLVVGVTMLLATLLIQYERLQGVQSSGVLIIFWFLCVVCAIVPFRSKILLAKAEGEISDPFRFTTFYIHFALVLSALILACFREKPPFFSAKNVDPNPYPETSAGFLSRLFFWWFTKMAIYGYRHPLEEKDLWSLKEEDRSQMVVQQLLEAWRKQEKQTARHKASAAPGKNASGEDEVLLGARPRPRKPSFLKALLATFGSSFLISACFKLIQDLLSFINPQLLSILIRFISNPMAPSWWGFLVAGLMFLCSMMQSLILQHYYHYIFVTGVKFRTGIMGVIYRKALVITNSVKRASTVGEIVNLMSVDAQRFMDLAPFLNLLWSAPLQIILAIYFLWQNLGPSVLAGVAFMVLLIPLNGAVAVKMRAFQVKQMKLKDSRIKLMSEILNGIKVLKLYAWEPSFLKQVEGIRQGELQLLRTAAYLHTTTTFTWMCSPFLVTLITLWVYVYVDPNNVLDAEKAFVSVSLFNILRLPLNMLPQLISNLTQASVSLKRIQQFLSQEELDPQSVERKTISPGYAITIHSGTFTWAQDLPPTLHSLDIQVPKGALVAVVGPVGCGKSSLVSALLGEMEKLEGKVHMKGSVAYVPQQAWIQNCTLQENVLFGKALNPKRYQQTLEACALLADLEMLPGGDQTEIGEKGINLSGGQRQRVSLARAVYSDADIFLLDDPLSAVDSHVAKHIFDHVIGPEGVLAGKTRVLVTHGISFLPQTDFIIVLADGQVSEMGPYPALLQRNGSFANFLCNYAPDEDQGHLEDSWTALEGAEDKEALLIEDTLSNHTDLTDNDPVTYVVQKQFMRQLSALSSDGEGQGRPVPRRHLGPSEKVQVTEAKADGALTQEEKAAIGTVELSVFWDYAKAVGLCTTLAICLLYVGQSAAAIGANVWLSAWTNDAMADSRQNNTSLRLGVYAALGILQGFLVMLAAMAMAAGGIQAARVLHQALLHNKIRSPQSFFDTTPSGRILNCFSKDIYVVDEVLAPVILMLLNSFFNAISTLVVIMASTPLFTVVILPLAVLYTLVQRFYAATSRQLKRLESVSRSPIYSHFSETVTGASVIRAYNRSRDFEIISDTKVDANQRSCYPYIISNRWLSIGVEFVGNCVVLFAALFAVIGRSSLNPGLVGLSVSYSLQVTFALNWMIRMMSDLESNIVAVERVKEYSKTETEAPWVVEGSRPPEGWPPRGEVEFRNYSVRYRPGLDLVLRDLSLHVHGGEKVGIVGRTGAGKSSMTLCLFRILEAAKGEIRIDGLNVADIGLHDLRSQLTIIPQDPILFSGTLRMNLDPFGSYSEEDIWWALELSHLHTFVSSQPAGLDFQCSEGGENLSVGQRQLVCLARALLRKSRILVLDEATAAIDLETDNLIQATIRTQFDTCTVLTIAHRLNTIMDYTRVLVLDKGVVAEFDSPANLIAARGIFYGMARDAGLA

OATP1B3 = biological target: T5, OATP1B3 (Homo sapiens, UniProt Q9NPD5); test: Inhibition of transporter-mediated probe uptake in HEK293-OATP1B3 cells
T5 construct: host or cells: HEK293
T5 sequence (Q9NPD5 1-702): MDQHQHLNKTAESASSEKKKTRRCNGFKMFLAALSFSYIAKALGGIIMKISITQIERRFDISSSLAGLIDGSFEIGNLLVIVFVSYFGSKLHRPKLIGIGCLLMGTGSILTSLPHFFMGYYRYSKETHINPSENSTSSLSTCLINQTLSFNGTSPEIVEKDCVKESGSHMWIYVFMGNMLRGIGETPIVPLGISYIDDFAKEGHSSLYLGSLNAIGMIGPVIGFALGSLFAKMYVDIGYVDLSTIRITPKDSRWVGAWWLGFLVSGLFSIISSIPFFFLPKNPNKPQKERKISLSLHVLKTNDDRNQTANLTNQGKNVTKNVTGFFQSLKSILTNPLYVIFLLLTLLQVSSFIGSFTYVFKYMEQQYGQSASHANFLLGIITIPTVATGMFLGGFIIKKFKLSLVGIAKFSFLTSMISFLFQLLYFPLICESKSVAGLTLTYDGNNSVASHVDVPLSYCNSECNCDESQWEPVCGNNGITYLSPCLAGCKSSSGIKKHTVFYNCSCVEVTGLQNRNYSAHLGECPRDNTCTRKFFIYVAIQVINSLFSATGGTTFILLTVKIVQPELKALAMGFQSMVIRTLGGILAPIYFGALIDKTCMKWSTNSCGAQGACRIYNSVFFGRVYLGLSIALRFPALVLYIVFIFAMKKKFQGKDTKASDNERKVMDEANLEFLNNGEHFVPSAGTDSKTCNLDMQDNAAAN

T1 sequence (P33261 whole entry): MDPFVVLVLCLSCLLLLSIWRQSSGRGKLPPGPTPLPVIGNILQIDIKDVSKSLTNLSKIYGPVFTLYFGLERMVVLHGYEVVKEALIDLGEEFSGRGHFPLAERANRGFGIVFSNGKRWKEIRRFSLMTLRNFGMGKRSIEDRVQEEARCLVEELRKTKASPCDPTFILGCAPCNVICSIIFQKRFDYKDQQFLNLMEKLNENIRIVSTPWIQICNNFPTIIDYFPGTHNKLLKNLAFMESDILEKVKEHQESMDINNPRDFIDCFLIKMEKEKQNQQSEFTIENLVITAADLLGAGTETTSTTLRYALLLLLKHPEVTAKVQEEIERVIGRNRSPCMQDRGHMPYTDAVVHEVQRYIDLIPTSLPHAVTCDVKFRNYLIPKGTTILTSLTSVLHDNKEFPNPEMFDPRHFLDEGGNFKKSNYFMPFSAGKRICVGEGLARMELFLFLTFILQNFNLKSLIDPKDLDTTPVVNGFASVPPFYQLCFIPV

C#C[C@]1(CO)O[C@@H](n2cnc3c(N)nc(F)nc32)C[C@@H]1O [Islatravir, 4′-Ethynyl-2-fluoro-2′-deoxyadenosine]
time-dependent inhibition (CYP2C19 [1]; CYP2C19, pre-incubation of 10 and 50 µM for up to 30 min): no time-dependent inhibition | DDI Potential (CYP2C19 [1]; CYP2C19 time dependent inhibition): Low risk ^h | IC50 (CYP2C19 [1]; time dependent, CYP2C19, read-out: Islatravir IC50): > 50 µM | mRNA Mean Fold Change ± SD CYP3A4 (CYP3A4; 0.1 µM): 0.6 ± 0.2 | mRNA Mean Fold Change ± SD CYP3A4 (CYP3A4; 0.5 µM): 0.6 ± 0.2 | mRNA Mean Fold Change ± SD CYP3A4 (CYP3A4; 1 µM): 0.6 ± 0.2 | mRNA Mean Fold Change ± SD CYP3A4 (CYP3A4; 5 µM): 0.5 ± 0.1 | mRNA Mean Fold Change ± SD CYP3A4 (CYP3A4; 10 µM): 0.6 ± 0.1 | mRNA Mean Fold Change ± SD CYP3A4 (CYP3A4; 20 µM): 0.1 ± 0.1 | mRNA response relative to positive control (CYP3A4; CYP3A4, each tested concentration 0.1-20 µM): less than 20% | enzyme activity, fold of solvent control (CYP3A4; CYP3A4 testosterone 6β-hydroxylation, all islatravir concentrations): ≤ 1.1 fold | time-dependent inhibition (CYP1A2; CYP1A2, pre-incubation of 10 and 50 µM for up to 30 min): no time-dependent inhibition | DDI Potential (CYP1A2; CYP1A2 time dependent inhibition): Low risk ^h | IC50 (CYP1A2; time dependent, CYP1A2, read-out: Islatravir IC50): > 50 µM | DDI Potential (CYP2C19 [2]; CYP2C19 reversible inhibition, FDA, EMA, PMDA guidance): Low risk | Maximum Unbound Plasma Concentration (Imax,u) to Ki,u Ratio (CYP2C19 [2]; CYP2C19 reversible, 60 mg, Cmax 1.01 µM, fu,p 0.96, Ki,u = IC50/2): <0.019 µM | IC50 (CYP2C19 [2]; reversible, CYP2C19 S-mephenytoin 4′-hydroxylation, read-out: Islatravir IC50): > 100 µM | IC50 (MRP4): > 100 µM | DDI Potential (CYP2D6; CYP2D6 reversible inhibition, FDA, EMA, PMDA guidance): Low risk | Maximum Unbound Plasma Concentration (Imax,u) to Ki,u Ratio (CYP2D6; CYP2D6 reversible, 60 mg, Cmax 1.01 µM, fu,p 0.96, Ki,u = IC50/2): <0.019 µM | IC50 (CYP2D6; reversible, CYP2D6 dextromethorphan O-demethylation, read-out: Islatravir IC50): > 100 µM | concentration dependence of binding to plasma proteins ([3]; 0.1 to 10 µM, all species tested): did not exhibit concentration dependence | fraction unbound at 24 h, 0.1 µM ([3]; pH 7.4, human plasma, 0.1 µM islatravir, ± standard deviation): 0.96 ± 0.04 | IC50 (MRP3): > 100 µM | IC50 (OATP1B3; OATP1B3-mediated uptake of sulfobromophthalein, read-out: Islatravir IC50): > 300 µM | Maximum Unbound Inlet Concentration (Iin,max,u) to IC50 Ratio (OATP1B3; OATP1B3, 60 mg dose): <0.035 | DDI Potential (OATP1B3; OATP1B3 inhibition, FDA, EMA, PMDA guidance): Low risk
